PMC7801736 (ACS infectious diseases, 2019)
Values after ≈ are worked out from the molar mass of the structure shown. Read-outs that look alike come from different tables or passages of the source.

How the values were obtained:
M. tuberculosis fgd1::tn [1] = details: 20 µM JSF-2164
M. tuberculosis H37Rv [2] = details: for time of treatment after which intrabacterial metabolite was detectable: H37Rv, 20 µM JSF-2164
[3] = test system: M. tuberculosis strain fgd1::tn; assay: microbe, parasite or virus in culture; format: cell-based; details: for MIC: Mycobacterium tuberculosis, read-out: MIC (µM) fgd1::tn; for MIC shift, fgd1::tn strain: fgd1::tn vs H37Rv
[4] = test system: M. tuberculosis strain ddn::tn; assay: microbe, parasite or virus in culture; format: cell-based; details: Mycobacterium tuberculosis, read-out: MIC (µM) ddn::tn
[5] = target: purified M. tuberculosis InhA (Mycobacterium tuberculosis, UniProt P9WGR1); assay: biochemical
InhA = details: cited from earlier work
M. tuberculosis fgd1::tn [6] = assay: Griess assay for NO· quantification, fgd1::tn; format: cell-based, Mycobacterium tuberculosis; details: F420H2 cofactor deficiency; 20 or 100 µM
M. tuberculosis H37Rv [7] = assay: Griess assay for NO· quantification, H37Rv; format: cell-based, Mycobacterium tuberculosis; details: for NO· production (supernatant nitrite concentration), 20 µM compound / NO· production (supernatant nitrite concentration), 100 µM compound: 2 days
M. tuberculosis H37Rv [8] = format: cell-based, Mycobacterium tuberculosis
[9] = test system: M. tuberculosis fatty acid biosynthesis; format: cell-based, Mycobacterium tuberculosis
[10] = test system: M. tuberculosis streptomycin-sensitive (ss18b) strain; format: cell-based, Mycobacterium tuberculosis; details: streptomycin-starved nonreplicating model; 7 days treatment
in vitro = format: cell-based; details: African green monkey
[11] = read-out: % InhA inhibition at 50 µM with 1% CMC Tween-20, 50 µM compound, 1% CMC Tween-20

purified M. tuberculosis InhA, sequence (P9WGR1 whole entry, looked up): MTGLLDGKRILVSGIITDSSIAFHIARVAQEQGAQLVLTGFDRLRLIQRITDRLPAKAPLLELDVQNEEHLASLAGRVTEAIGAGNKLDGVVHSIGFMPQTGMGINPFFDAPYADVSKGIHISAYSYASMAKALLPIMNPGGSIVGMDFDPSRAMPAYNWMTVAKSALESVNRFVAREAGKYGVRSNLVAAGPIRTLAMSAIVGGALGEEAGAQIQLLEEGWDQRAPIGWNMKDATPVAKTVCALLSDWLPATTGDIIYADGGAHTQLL

Row | SMILES | time of treatment after which intrabacterial metabolite was discernible (M. tuberculosis fgd1::tn [1]) | time of treatment after which intrabacterial metabolite was detectable (M. tuberculosis H37Rv [2]) | MIC [3] | MIC [4] | inhibition at 50 µM [5, 11] | NO· production in fgd1::tn strain (M. tuberculosis fgd1::tn [6]) | MIC shift, fgd1::tn strain [3] | NO· production (supernatant nitrite concentration), 20 µM compound (M. tuberculosis H37Rv [7]; 20 µM exposure) | NO· production (supernatant nitrite concentration), 100 µM compound (M. tuberculosis H37Rv [7]; 100 µM exposure) | further results
1 | COc1cccc(Nc2ccc(N)c3nonc23)c1 [JSF-3616, N4-(3-methoxyphenyl)-benzo[c][1,2,5]oxadiazole-4,7-diamine] | 4 h | 30 min | 32 µM (≈ 8.2 µg/mL) | 32 µM (≈ 8.2 µg/mL) | 46 ± 2.9% | – | – | – | – | –
2 | COc1cccc(Nc2ccc3nonc3c2N)c1 [JSF-3617, N5-(3-methoxyphenyl)benzo[c][1,2,5]oxadiazole-4,5-diamine] | 4 h | 30 min | 125 µM (≈ 32 µg/mL) | 250 µM (≈ 64.1 µg/mL) | 77 ± 0.74% | – | – | – | – | –
3 | NNC(=O)c1ccncc1 [isoniazid, reference compound] | – | – | 0.078 µM (≈ 0.0107 µg/mL) | 0.078 µM (≈ 0.0107 µg/mL) | – | – | – | – | – | –
4 | CCCCCCc1ccc(Oc2ccccc2C)c(O)c1 [PT70] | – | – | – | – | – | – | – | – | – | Ki (InhA): 0.0078 µM; residence time (InhA): 24 min
5 | O=[N+]([O-])c1cn2c(n1)OC[C@@H](OCc1ccc(OC(F)(F)F)cc1)C2 [pretomanid] | – | – | – | – | – | abolished | > 500 fold | 9.8 µM | 17 µM | NO· release (ratio of nitrite concentration to compound dose), 20 µM compound (M. tuberculosis H37Rv [7]; 20 µM exposure, initial 2 days): 49%; NO· release (ratio of nitrite concentration to compound dose), 100 µM compound (M. tuberculosis H37Rv [7]; 100 µM exposure, initial 2 days): 17%
6 | COc1cccc(Nc2ccc([N+](=O)[O-])c3nonc23)c1 [JSF-2164, N-(3-methoxyphenyl)-7-nitrobenzo[c][1,2,5]oxadiazol-4-amine] | – | – | > 200 µM | 8 µM (≈ 2.29 µg/mL) | 44 ± 1% | abolished | > 20 fold | 0.84 µM | 6.7 µM | bactericidal classification (MBC within 4-fold of MIC) (M. tuberculosis H37Rv [8]): not formally bactericidal; reduction in M. tuberculosis colony-forming units/mL (M. tuberculosis H37Rv [8]; 16× MIC, over 7 days, H37Rv): ca. 1 log10; effect on MAMEs and FAMEs (TLC) [9]: did not exhibit a pattern similar to that for INH; time at which intrabacterial compound was degraded to a negligible level (M. tuberculosis H37Rv [2]; Mycobacterium tuberculosis): ≥ 4 h; in vitro efficacy versus ss18b strain [10]: exhibited in vitro efficacy; CC50 (in vitro): 44 to 87 µM; IC50 versus purified InhA relative to MIC against the H37Rv strain ([5]; IC50 larger than MIC): ca. 5 fold; IC50 ([5]; InhA IC50 (µM), without Tween-20, mean ± standard error): 51 µM; IC50 ([5]; InhA IC50 with Tween-20, Tween-20 at 1% of its CMC in enzymatic buffer): 65 ± 16 µM; inhibition at 50 µM ([5]; read-out: InhA Inhibition at 50 µM Cmpd, 50 µM compound, commercial material, mean ± standard error): ≥ 50%; inhibition at 50 µM ([5]; read-out: InhA inhibition at 50 µM compound, synthetic material, 50 µM compound, […]): 44%
